# Data published in patent US20230346670A1, “Prebiotic Oral Care Compositions and Methods” (Colgate-Palmolive Company, priority 2020, published 2023).
# Legend:
# Assay type in all cases: cell-based
# [1] = test system: P. intermedia virulence genes; assay: Virulence gene expression in multi-species biofilm (SYBR RT-qPCR); settings: relative to control = 1
# Protocol: (§1) Biofilms are grown vertically on Calcium Deficient Hydroxyapatite (CAD-HA) disks (Hitemco Medical, Old Bethpage, USA) using the Amsterdam Active Adhesion model. Biofilms are allowed to establish during 24 h (37° C., 170 rpm) under microaerophilic conditions (6% O2, 7% CO2, 7% H2, 80% N2). After this 24 h, disks are rinsed 3 times a day for 3 minutes (RT, 250 rpm), for 3 consecutive days, by transferring the lid containing the disks to a new 24-well plate containing 2 mL/well of the appropriate substrate solution. As a negative control, PBS (pH 5.7) without substrate supplementation is used.
# The virulence of the substrate-treated multi-species biofilms are evaluated by analyzing the relative expression of 33 genes that are recognized as being related to some form of virulence and from 4 periodontal pathogens.
# Expression of bacterial virulence genes is analyzed through SYBR RT-qPCR and normalized for bacterial housekeeping gene expression. […] These effects are illustrated in Tables 6a and 6b:
# Note, for Table 6d, fold changes in virulence gene expression are determined relatively to the control condition through the 2^^-ΔΔCt method and are shown as the geometric mean (C.I.) (n = 3) of the 2^^-ΔΔCt values. All substrates are dissolved in PBS at a concentration of 1 M (upper part) or 1%(w/v) (lower part). Values between 0 and 1 represent relative downregulation, values >1 represent relative upregulation. […] NADG: N-acetyl-D-glucosamine; C.I.: 95% confidence interval.
# [2] = test system: multi-species biofilm (beneficial/commensal species, periodontal pathogens, cariogenic pathogens); assay: Multi-species biofilm composition, relative proportions and group changes
# Protocol: Biofilms are grown vertically on Calcium Deficient Hydroxyapatite (CAD-HA) disks (Hitemco Medical, Old Bethpage, USA) using the Amsterdam Active Adhesion model. […] After this 24 h, disks are rinsed 3 times a day for 3 minutes (RT, 250 rpm), for 3 consecutive days, by transferring the lid containing the disks to a new 24-well plate containing 2 mL/well of the appropriate substrate solution. As a negative control, PBS (pH 5.7) without substrate supplementation is used. N-acetyl-D-glucosamine (NADG), α-D-lactose, D-(+)-trehalose and D-(+)-raffinose are selected to determine their effects on multi-species biofilm composition. Repeated rinsing of the biofilms with the substrates at a concentration of 1 M results in a significant decrease in absolute numbers in at least four of the pathogenic bacterial species tested in the assay, in comparison to the control, the results of which are described in Table 1 below. Note, NADG decreased absolute numbers of S. sobrinus. Absolute abundances of bacterial species are shown as mean ± SD (n = 3) logarithmic values of the genome equivalents per millilitre (log(Geq/mL)).
# P. intermedia = assay: Multi-species biofilm composition, absolute abundance (Geq/mL); settings: repeated rinsing
# Protocol: as §1
# (§2) N-acetyl-D-glucosamine (NADG), α-D-lactose, D-(+)-trehalose and D-(+)-raffinose are selected to determine their effects on multi-species biofilm composition. Repeated rinsing of the biofilms with the substrates at a concentration of 1 M results in a significant decrease in absolute numbers in at least four of the pathogenic bacterial species tested in the assay, in comparison to the control, the results of which are described in Table 1 below. Note, NADG decreased absolute numbers of S. sobrinus. Absolute abundances of bacterial species are shown as mean ± SD (n = 3) logarithmic values of the genome equivalents per millilitre (log(Geq/mL)).
# S. mitis = assay: as above; settings: repeated rinsing
# Protocol: as §1, §2
# S. sobrinus = assay: as above; settings: repeated rinsing
# Protocol: as §1, §2
# S. oralis = assay: as above; settings: repeated rinsing
# Protocol: as §1, §2
# S. gordonii = assay: as above; settings: repeated rinsing
# Protocol: as §1, §2
# A. actinomycetemcomitans = assay: as above; settings: repeated rinsing
# Protocol: as §1, §2
# P. gingivalis = assay: as above; settings: repeated rinsing
# Protocol: as §1, §2
# A. naeslundii = assay: as above; settings: repeated rinsing
# Protocol: as §1, §2
# [3] = lower part of Table 6d, head prints 1 M (lower part 1%(w/v))
# [4] = upper part of Table 6d, substrate 1 M, n = 3
# [5] = Table 1a, substrate 1 M, listed as α-D-lactose
# [6] = Table 3, separate experiments, concentration not given
compound,measurement,setting,value
"OC[C@H]1O[C@@H](O[C@H]2[C@H](O)[C@@H](O)[C@@H](O)O[C@@H]2CO)[C@H](O)[C@@H](O)[C@H]1O [D-lactose, α-D-lactose]","fold change in DnaJ expression, geometric mean (95% C.I.)",[1]; [3],0.29 (0.18-0.47)^∗ fold
same,"fold change in DnaK expression, geometric mean (95% C.I.)",[1]; [3],1.16 (0.55-2.44) fold
same,"fold change in ECF expression, geometric mean (95% C.I.)",[1]; [3],0.26 (0.12-0.58)^∗ fold
same,"fold change in GroES expression, geometric mean (95% C.I.)",[1]; [3],0.91 (0.41-2.03) fold
same,"fold change in HtpG expression, geometric mean (95% C.I.)",[1]; [3],0.40 (0.15-1.07)^∗ fold
same,"fold change in KpsD expression, geometric mean (95% C.I.)",[1]; [3],0.72 (0.39-1.35) fold
same,"fold change in adpc expression, geometric mean (95% C.I.)",[1]; [3],0.41 (0.30-0.55) fold
same,"fold change in clpB expression, geometric mean (95% C.I.)",[1]; [3],0.85 (0.23-3.13) fold
same,"fold change in inpA expression, geometric mean (95% C.I.)",[1]; [3],0.52 (0.41-0.66)^∗ fold
same,"fold change in phg expression, geometric mean (95% C.I.)",[1]; [3],0.39 (0.19-0.77)^∗ fold
same,"fold change in DnaJ expression, geometric mean (95% C.I.)",[1]; [4],0.25 (0.05-1.25)^∗ fold
same,"fold change in DnaK expression, geometric mean (95% C.I.)",[1]; [4],0.34 (0.28-0.42)^∗ fold
same,"fold change in ECF expression, geometric mean (95% C.I.)",[1]; [4],1.72 (0.56-5.25) fold
same,"fold change in GroES expression, geometric mean (95% C.I.)",[1]; [4],0.29 (0.09-0.91)^∗ fold
same,"fold change in HtpG expression, geometric mean (95% C.I.)",[1]; [4],0.19 (0.12-0.31)^∗ fold
same,"fold change in KpsD expression, geometric mean (95% C.I.)",[1]; [4],0.62 (0.21-1.87) fold
same,"fold change in adpc expression, geometric mean (95% C.I.)",[1]; [4],0.30 (0.23-0.39)^∗ fold
same,"fold change in clpB expression, geometric mean (95% C.I.)",[1]; [4],0.38 (0.08-1.75)^∗ fold
same,"fold change in inpA expression, geometric mean (95% C.I.)",[1]; [4],0.47 (0.27-0.82)^∗ fold
same,"fold change in phg expression, geometric mean (95% C.I.)",[1]; [4],0.12 (0.08-0.18)^∗ fold
same,relative proportion of beneficial or commensal species in biofilm,"[2]; Table 1a, substrate 1 M",92.72 (+/- 4.39)^∗ % (Geq/mL)
same,relative proportion of cariogenic pathogens in biofilm,"[2]; Table 1a, substrate 1 M",5.82 (+/- 3.94) % (Geq/mL)
same,relative proportion of periodontal pathogens in biofilm,"[2]; Table 1a, substrate 1 M",1.46 (+/- 0.64)^∗ % (Geq/mL)
same,relative proportion of beneficial or commensal species in biofilm,[2]; [5],92.72±4.39 % (Geq/mL)
same,relative proportion of cariogenic pathogens in biofilm,[2]; [5],5.82±3.94 % (Geq/mL)
same,relative proportion of periodontal pathogens in biofilm,[2]; [5],1.46±0.64 % (Geq/mL)
same,relative proportion of beneficials/commensals in biofilm,[2]; [6],64.14 (+/- 9.81) % (Geq/mL)
same,relative proportion of cariogenic pathogens in biofilm,[2]; [6],0.21 (+/- 0.08) % (Geq/mL)
same,relative proportion of periodontal pathogens in biofilm,[2]; [6],35.65 (+/- 9.88) % (Geq/mL)
same,"absolute abundance of P. intermedia (Pi), mean ± SD log (Geq/mL)",P. intermedia; substrate 1% (w/v),8.13 ± 0.25 log (Geq/mL)
same,"absolute abundance of P. intermedia (Pi), mean ± SD log (Geq/mL)","P. intermedia; substrate 1 M in PBS, n = 3",4.05 ± 0.61^∗ log (Geq/mL)
same,"absolute abundance of S. mitis, mean ± SD log (Geq/mL)",S. mitis; substrate 1% (w/v),2.65 ± 0.00 log (Geq/mL)
same,"absolute abundance of S. mitis, mean ± SD log (Geq/mL)","S. mitis; substrate 1 M in PBS, n = 3",3.17 ± 0.75 log (Geq/mL)
same,"absolute abundance of S. sobrinus, mean ± SD log (Geq/mL)",S. sobrinus; substrate 1% (w/v),5.27 ± 0.24 log (Geq/mL)
same,"absolute abundance of S. sobrinus, mean ± SD log (Geq/mL)","S. sobrinus; substrate 1 M in PBS, n = 3",7.82 ± 0.11^∗ log (Geq/mL)
same,"absolute abundance of S. oralis, mean ± SD log (Geq/mL)",S. oralis; substrate 1% (w/v),6.6 ± 0.17 log (Geq/mL)
same,"absolute abundance of S. oralis, mean ± SD log (Geq/mL)","S. oralis; substrate 1 M in PBS, n = 3",7.45 ± 0.46 log (Geq/mL)
same,"absolute abundance of S. gordonii, mean ± SD log (Geq/mL)",S. gordonii; substrate 1% (w/v),8.4 ± 0.11 log (Geq/mL)
same,"absolute abundance of S. gordonii, mean ± SD log (Geq/mL)","S. gordonii; substrate 1 M in PBS, n = 3",9.31 ± 0.41 log (Geq/mL)
same,"absolute abundance of A. actinomycetemcomitans (Aa), mean ± SD log (Geq/mL)",A. actinomycetemcomitans; substrate 1% (w/v),9.44 ± 0.41 log (Geq/mL)
same,"absolute abundance of A. actinomycetemcomitans (Aa), mean ± SD log (Geq/mL)","A. actinomycetemcomitans; substrate 1 M in PBS, n = 3",7.87 ± 0.04^∗ log (Geq/mL)
same,"absolute abundance of P. gingivalis (Pg), mean ± SD log (Geq/mL)",P. gingivalis; substrate 1% (w/v),6.93 ± 0.10 log (Geq/mL)
same,"absolute abundance of P. gingivalis (Pg), mean ± SD log (Geq/mL)","P. gingivalis; substrate 1 M in PBS, n = 3",4.26 ± 0.51^∗ log (Geq/mL)
same,"absolute abundance of A. naeslundii (An), mean ± SD log (Geq/mL)",A. naeslundii; substrate 1% (w/v),7.75 ± 0.24 log (Geq/mL)
same,"absolute abundance of A. naeslundii (An), mean ± SD log (Geq/mL)","A. naeslundii; substrate 1 M in PBS, n = 3",4.86 ± 0.19^∗ log (Geq/mL)
